Measurements taken from patent US5965598A, “Zinc-phthalocyanines and corresponding conjugates, their preparation and use in photodynamic therapy and as diagnostic agents” (priority 1997, dated 1999).

How the values were obtained:
[1] = system: E. Coli (strain 04); experiment: Photoinactivation of microorganisms: E. coli; format: cell-based, Escherichia coli (strain 04); details: footnote below the P. aeruginosa / E. coli table
Method: (§1) The experimental protocol was the following:
(§2) Incubation in dark at 37° C. (5 min to 1 hour).

[2] = system: Branhamella catarrhalis; experiment: Photoinactivation of microorganisms: Branhamella catarrhalis; format: cell-based; details: footnote
Method: as §1, §2

[3] = system: Staphylococcus aureus (ATCC 6538P); experiment: Photoinactivation of microorganisms: Staphylococcus aureus; format: cell-based; details: 1 μM; 15 mW/cm2, 30 min
Method: as §1, §2

[Zn+2].c1ccc2c(c1)-c1nc-2nc2[n-]c(nc3nc([n-]c4nc(n1)-c1ccccc1-4)-c1ccccc1-3)c1ccccc21 [ZnPC, ZnPhthalocyanine]
Photoinactivation activity (in words) [1]: not active
Photoinactivation activity (in words) [2]: not active
Cell mortality [3]: 99.99
